Literature values as cited in US20070259016A1, “Method of treating crops with submicron chlorothalonil” (priority 2006, published 2007).

Columns and labels:
[1] = acid and neutral aqueous preparations
[2] = at 170 C.

N#Cc1c(Cl)c(Cl)c(Cl)c(C#N)c1Cl [chlorothalonil, 2,4,5,6-tetrachloro-1,3-dicyanobenzene]
stability in aqueous preparations [1]: relatively stable | volatility [2]: 9.2 mmHg | solubility in acetone and xylene (acetone and xylene): slightly soluble | solubility in water (water): 0.6-1.2 ppm
